Literature values as cited in patent US20070269473A1, “Microbial Encapsulation” (priority 2004, published 2007).

conditions: octanol/water; carriers

Row | Compound | logP(o/w)
1 | 1,3,5-trimethyl-Benzene (Mesitylene) | 3.6
2 | COC(=O)c1ccccc1 [Methyl benzoate] | 1.8
3 | Acetophenone (1-phenyl-Ethanone) | 1.7
